“Also recorded” adds a separate entry of the source. Structures can show the parent of a compound that is named as a salt.
Columns and labels:
[1] = system: human precision-cut lung slices (hPCLS); test: hPCLS airway dilation assay; type: cell-based
[2] = system: AKT phosphorylation at S473 (pAKT); test: Immunoblot of AKT phosphorylation in HASMCs; type: cell-based, human
Protocol: Isolation and culture of HASMC. Human lungs were received from the National Disease Research Interchange (Philadelphia, PA, USA) and from the International Institute for the Advancement of Medicine (Edison, NJ, USA) and HASM cells were derived from the tracheas. […] Culture of HASM cells was conducted as described previously (Panettieri et al., 1989a). Briefly, cells were cultured in Ham's F-12 medium supplemented with 100 U mL^−1 penicillin, 0.1 mg mL^−1, streptomycin, 2.5 mg mL^−1 amphotericin B and 10% FBS. Medium was replaced every 72 hours. HASM cells were only used during subculture passages 1-4 due to the strong expression of native contractile proteins (Panettieri et al., 1989b). In pertussis toxin studies, cells were treated with 1 μg/ml of pertussis toxin for 18 hours. […]
Immunoblot analysis. […] Phosphorylation of MYPT1, MLC and AKT were assessed, and band densities were normalized to GAPDH, total MYPT1, total MLC, or total AKT band density.
Statistical analysis. […] For experiments comparing agonist responses in primary cells, conditions were all normalized to the basal condition and subsequently analyzed statistically. GraphPad Prism software (La Jolla, CA, USA) was used to determine statistical significance evaluated by Student's unpaired t-test for two groups or ANOVA with Bonferroni post-test for 3 or more groups. […]

[3] = system: isoproterenol-mediated cAMP production; test: cAMP assay in HASMCs; type: cell-based, human; conditions: pertussis toxin 18 h, 1 μg/ml; 306±23 fold without PTX
Protocol: Isolation and culture of HASMC. Human lungs were received from the National Disease Research Interchange (Philadelphia, PA, USA) and from the International Institute for the Advancement of Medicine (Edison, NJ, USA) and HASM cells were derived from the tracheas. […] Culture of HASM cells was conducted as described previously (Panettieri et al., 1989a). Briefly, cells were cultured in Ham's F-12 medium supplemented with 100 U mL^−1 penicillin, 0.1 mg mL^−1, streptomycin, […] amphotericin B and 10% FBS. Medium was replaced every 72 hours. HASM cells were only used during subculture passages 1-4 due to the strong expression of native contractile proteins (Panettieri et al., 1989b). In pertussis toxin studies, cells were treated with 1 μg/ml of pertussis toxin for 18 hours. All pharmacologic inhibitors were used with DMSO as the vehicle at a final concentration of 0.1% and were used to treat HASMC 30 minutes prior to agonist stimulation.
cAMP Assay. HASMCs were seeded in a 24-well plate until about 80% confluent and serum-deprived overnight. Cells were stimulated and lysed using cAMP-Screen System ELISA from Applied Biosystems (Bedford, MA, USA). Experiment was conducted according to manufacturer's protocol.

Compound: COc1ccc(CC(C)NCC(O)c2ccc(O)c(NC=O)c2)cc1 (centres unmarked) [Formoterol, formoterol fumarate dihydrate]
- EC50 ([1]; Homo sapiens, read-out: log EC50, reversal of carbachol-induced bronchoconstriction (converted)): 501 nM

Compound: pertussis toxin
- effect on carbachol-induced AKT phosphorylation compared to vehicle ([2]; pertussis toxin 18 h, 1 μg/ml before carbachol 10 μM 10 min, vehicle 0.01% DMSO): little effect
- isoproterenol-mediated cAMP elevation in the presence of carbachol (fold over basal) [3]: 461±37 fold

Compound: rhosin
- bronchodilation of carbachol-preconstricted hPCLS ([1]; increasing doses of rhosin after carbachol, compared with formoterol): comparable to formoterol; also recorded: reverses carbachol-induced bronchoconstriction in a dose-dependent manner
- carbachol-induced phosphorylation of AKT (fold over basal) ([2]; primary HASMCs, rhosin 10 μM 30 minutes, carbachol 10 μM 10 min, vehicle 4.4±0.8 fold): 0.6±0.1 fold
